Structures can show the parent of a compound that is named as a salt.
These compounds were tested against ROCK2 (Homo sapiens (Human), UniProt O75116) (assay: biochemical).
Chain of ROCK2 (O75116 whole entry, species assumed): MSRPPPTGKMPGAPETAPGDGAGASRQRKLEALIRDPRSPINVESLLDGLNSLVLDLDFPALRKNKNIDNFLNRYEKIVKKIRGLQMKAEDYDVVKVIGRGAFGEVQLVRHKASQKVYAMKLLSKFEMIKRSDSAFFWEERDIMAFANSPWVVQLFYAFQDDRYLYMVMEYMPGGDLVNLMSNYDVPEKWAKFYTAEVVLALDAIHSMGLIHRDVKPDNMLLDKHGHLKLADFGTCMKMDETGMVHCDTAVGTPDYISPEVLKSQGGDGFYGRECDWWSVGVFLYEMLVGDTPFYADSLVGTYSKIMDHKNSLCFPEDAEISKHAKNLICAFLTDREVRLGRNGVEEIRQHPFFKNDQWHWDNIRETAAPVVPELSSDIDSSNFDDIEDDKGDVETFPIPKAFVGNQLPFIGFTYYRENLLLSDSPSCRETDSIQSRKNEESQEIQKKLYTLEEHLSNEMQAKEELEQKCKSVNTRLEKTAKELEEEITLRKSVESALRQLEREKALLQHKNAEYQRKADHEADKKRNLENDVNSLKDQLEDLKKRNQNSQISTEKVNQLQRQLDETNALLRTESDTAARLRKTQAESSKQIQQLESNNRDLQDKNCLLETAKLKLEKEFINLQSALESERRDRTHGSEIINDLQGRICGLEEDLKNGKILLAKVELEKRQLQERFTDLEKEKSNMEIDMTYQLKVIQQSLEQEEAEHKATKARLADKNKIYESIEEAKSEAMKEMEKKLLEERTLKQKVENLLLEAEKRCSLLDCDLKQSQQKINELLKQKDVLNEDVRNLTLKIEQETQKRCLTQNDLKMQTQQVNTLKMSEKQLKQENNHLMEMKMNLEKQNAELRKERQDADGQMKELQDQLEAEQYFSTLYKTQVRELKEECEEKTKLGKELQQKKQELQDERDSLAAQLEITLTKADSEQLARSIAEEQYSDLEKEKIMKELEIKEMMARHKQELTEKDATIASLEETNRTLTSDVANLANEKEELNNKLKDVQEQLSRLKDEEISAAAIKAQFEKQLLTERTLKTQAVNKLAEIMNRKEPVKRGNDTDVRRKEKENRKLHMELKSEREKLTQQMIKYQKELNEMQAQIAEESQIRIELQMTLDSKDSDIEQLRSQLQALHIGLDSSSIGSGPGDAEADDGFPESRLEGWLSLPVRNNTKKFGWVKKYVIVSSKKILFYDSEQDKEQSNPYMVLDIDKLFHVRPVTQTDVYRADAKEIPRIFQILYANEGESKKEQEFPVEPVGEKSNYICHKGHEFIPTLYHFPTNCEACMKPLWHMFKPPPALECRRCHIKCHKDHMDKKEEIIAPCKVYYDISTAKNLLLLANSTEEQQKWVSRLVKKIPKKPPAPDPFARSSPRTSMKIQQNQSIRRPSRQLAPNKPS
In the case of `COc1cc(NC2CCN(c3ccc(-c4cn[nH]c4)c(C(F)F)c3)C2=O)ccc1F` (single isomer, unassigned) [Example 180, 1-(3-(difluoromethyl)-4-(1H-pyrazol-4-yl)phenyl)-3-((4-fluoro-3-methoxyphenyl)amino)pyrrolidin-2-one], the IC50 is reported as 100 to 2200 nM. For `COc1cccc(NC2CCN(c3ccc(-c4cn[nH]c4)c(OC)c3)C2=O)c1` (single isomer, unassigned) [Example 74, 1-(3-methoxy-4-(1H-pyrazol-4-yl)phenyl)-3-((3-methoxyphenyl)amino)pyrrolidin-2-one], the IC50 was < 10 nM. For `COc1cc(F)cc(NC2CCN(c3ccc(-c4cn[nH]c4)c(OC)n3)C2=O)c1` (single isomer, unassigned) [Example 198, 3-((3-fluoro-5-methoxyphenyl)amino)-1-(6-methoxy-5-(1H-pyrazol-4-yl)pyridin-2 yl)pyrrolidin-2-one], the IC50 was < 10 nM. With `O=C1C(c2ccccc2Cl)CCN1c1ccc(-c2cn[nH]c2)cc1` (centres unmarked) [Example 105, 1-(4-(1H-pyrazol-4-yl)phenyl)-3-(2-chlorophenyl)pyrrolidin-2-one] the IC50 was 10 to 100 nM. With `COc1c(F)cccc1NC1CCN(c2ccc(-c3cn[nH]c3)c(F)c2)C1=O` (single isomer, unassigned) [Example 337, 3-((3-fluoro-2-methoxyphenyl)amino)-1-(3-fluoro-4-(1H-pyrazol-4-yl)phenyl) pyrrolidin-2-one] the IC50 was 100 to 2200 nM. For `COc1cc(F)cc(NC2CCN(c3cc(F)c(-c4cn[nH]c4)cc3F)C2=O)c1` (single isomer, unassigned) [Example 351, 1-(2,5-difluoro-4-(1H-pyrazol-4-yl)phenyl)-3-((3-fluoro-5-methoxyphenyl)amino)pyrrolidin-2-one], the IC50 was 10 to 100 nM. `COc1nc(N2CCC(N3CCC(F)(F)CC3)C2=O)ccc1-c1cn[nH]c1` (racemic) [Example 282, 3-(4,4-difluoropiperidin-1-yl)-1-(6-methoxy-5-(1H-pyrazol-4-yl)pyridin-2-yl)pyrrolidin-2-one hydrochloride] showed an IC50 of 10 to 100 nM. `COc1nc(N2CCC(N3CC[C@@H](N(C)C)C3)C2=O)ccc1-c1cn[nH]c1` (mixture of isomers) [Example 293, (3R)-3-(dimethylamino)-1′-(6-methoxy-5-(1H-pyrazol-4-yl)pyridin-2-yl)-[l,3′-bipyrrolidin]-2′-one] was tested, and the IC50 was 100 to 2200 nM. Work on `COc1ccc(F)c(NC2CCN(c3ccc(-c4cn[nH]c4)c(C)c3)C2=O)c1` (single isomer, unassigned) [Example 364, 3-((2-fluoro-5-methoxyphenyl)amino)-1-(3-methyl-4-(1H-pyrazol-4-yl)phenyl) pyrrolidin-2-one] yielded an IC50 of 10 to 100 nM. Compound `COc1ccc(NC2CCN(c3ccc(-c4cn[nH]c4)cc3)C2=O)c(F)c1` (single isomer, unassigned) [Example 19, 1-(4-(1H-pyrazol-4-yl)phenyl)-3-((2-fluoro-4-methoxyphenyl)amino)pyrrolidin-2-one] has an IC50 of 100 to 2200 nM. In the case of `COc1cc(N2CCC(Nc3c(F)cccc3OC)C2=O)ccc1-c1cn[nH]c1` (single isomer, unassigned) [Example 135, 3-((2-fluoro-6-methoxyphenyl)amino)-1-(3-methoxy-4-(1H-pyrazol-4-yl)phenyl) pyrrolidin-2-one], the IC50 is reported as 10 to 100 nM. With `COc1ccc(C(N)=O)c(NC2CCN(c3ccc(-c4cn[nH]c4)cc3)C2=O)c1` (racemic) [Example 324, 2-((1-(4-(1H-pyrazol-4-yl)phenyl)-2-oxopyrrolidin-3-yl)amino)-4-methoxybenzamide] the IC50 was 100 to 2200 nM. `COc1ccc(F)c(NC2CCN(c3ccc(-c4cn[nH]c4)c(C(F)(F)F)c3)C2=O)c1` (single isomer, unassigned) [Example 373, 1-(4-(1H-pyrazol-4-yl)-3-(trifluoromethyl)phenyl)-3-((2-fluoro-5-methoxyphenyl)amino)pyrrolidin-2-one] was tested, and the IC50 was 100 to 2200 nM. In the case of `COc1cc(NC2CCN(c3ccc(-c4cn[nH]c4)cc3)C2=O)ccc1F` (single isomer, unassigned) [Example 17, 1-(4-(1H-pyrazol-4-yl)phenyl)-3-((4-fluoro-3-methoxyphenyl)amino)pyrrolidin-2-one], the IC50 is reported as 10 to 100 nM. `COc1c(F)cccc1NC1CCN(c2ccc(-c3cn[nH]c3)c(C#N)c2)C1=O` (single isomer, unassigned) [Example 376, 5-(3-((3-fluoro-2-methoxyphenyl)amino)-2-oxopyrrolidin-1-yl)-2-(1H-pyrazol-4-yl)benzonitrile] showed an IC50 of 100 to 2200 nM. Compound `O=C1C(Nc2nc3ccccc3[nH]2)CCN1c1ccc(-c2cn[nH]c2)cc1` (single isomer, unassigned) [Example 55, 3-((1H-benzo[d]imidazol-2-yl)amino)-1-(4-(1H-pyrazol-4-yl)phenyl)pyrrolidin-2-one] has an IC50 of 100 to 2200 nM. For `O=C1C(Nc2cccc(OCC3CC3)c2)CCN1c1ccc(-c2cn[nH]c2)cn1` (single isomer, unassigned) [Example 319, 1-(5-(1H-pyrazol-4-yl)pyridin-2-yl)-3-((3-(cyclopropylmethoxy)phenyl)amino) pyrrolidin-2-one], the IC50 was 10 to 100 nM. `COc1cccc(NC2CCN(c3ccc(-c4ccnc(F)c4)c(OC)n3)C2=O)c1` (racemic) [Example 127, 1-(2′-fluoro-2-methoxy-[3,4′-bipyridin]-6-yl)-3-((3-methoxyphenyl)amino)pyrrolidin-2-one] gave an IC50 of 10 to 100 nM. With `O=C1C(c2ccccc2F)CCN1c1ccc(-c2cn[nH]c2)cc1` (centres unmarked) [Example 104, 1-(4-(1H-pyrazol-4-yl)phenyl)-3-(2-fluorophenyl)pyrrolidin-2-one] the IC50 was 10 to 100 nM. Compound `O=C1C(Nc2ccc(F)cc2F)CCN1c1ccc(-c2cn[nH]c2)cc1` (single isomer, unassigned) [Example 25, 1-(4-(1H-pyrazol-4-yl)phenyl)-3-((2,4-difluorophenyl)amino)pyrrolidin-2-one] has an IC50 of 10 to 100 nM. For `COc1cc(NC2CCN(c3ccc(-c4cn[nH]c4)c(F)c3)C2=O)ccc1F` (single isomer, unassigned) [Example 332, 3-((4-fluoro-3-methoxyphenyl)amino)-1-(3-fluoro-4-(1H-pyrazol-4-yl)phenyl) pyrrolidin-2-one], the IC50 was < 10 nM. In the case of `COc1nc(N2CCC(Nc3cc(C)nn3C)C2=O)ccc1-c1cn[nH]c1` (racemic) [Example 270, 3-((1,3-dimethyl-1H-pyrazol-5-yl)amino)-1-(6-methoxy-5-(1H-pyrazol-4-yl)pyridin-2-yl)pyrrolidin-2-one], the IC50 is reported as 10 to 100 nM. `COc1cccc(NC2CCN(c3ccc(-c4cn[nH]c4)c(C(N)=O)c3)C2=O)c1` (single isomer, unassigned) [Example 130, 5-(3-((3-Methoxyphenyl)amino)-2-oxopyrrolidin-1-yl)-2-(1H-pyrazol-4-yl)benzamide] was tested, and the IC50 was 100 to 2200 nM. `CCOc1cc(N2CCC(Nc3ccc(F)c(OC)c3)C2=O)ccc1-c1cn[nH]c1` (single isomer, unassigned) [Example 38, 1-(3-ethoxy-4-(1H-pyrazol-4-yl)phenyl)-3-((4-fluoro-3-methoxyphenyl)amino)pyrrolidin-2-one] gave an IC50 of 10 to 100 nM. Work on `COc1ccc(NC2CCN(c3ccc(-c4cn[nH]c4)c(OC)c3)C2=O)cc1F` (single isomer, unassigned) [Example 141, 3-((3-fluoro-4-methoxyphenyl)amino)-1-(3-methoxy-4-(1H-pyrazol-4-yl)phenyl) pyrrolidin-2-one] yielded an IC50 of 100 to 2200 nM. `COc1cccc(NC2CCN(c3ccc(-c4ccncc4F)c(C)n3)C2=O)c1` (single isomer, unassigned) [Example 121, 1-(3′-fluoro-2-methyl-[3,4′-bipyridin]-6-yl)-3-((3-methoxyphenyl)amino)pyrrolidin-2-one] gave an IC50 of 100 to 2200 nM. With `O=C1C(CCc2ccccc2Cl)CCN1c1ccc(-c2cn[nH]c2)cc1` (centres unmarked) [Example 100, 1-(4-(1H-pyrazol-4-yl)phenyl)-3-(2-chlorophenethyl)pyrrolidin-2-one] the IC50 was 100 to 2200 nM. Compound `N#Cc1cccc(CC2CCN(c3ccc(-c4cn[nH]c4)cc3)C2=O)c1` (centres unmarked) [Example 97, 3-((1-(4-(1H-pyrazol-4-yl)phenyl)-2-oxopyrrolidin-3-yl)methyl)benzonitrile] has an IC50 of 100 to 2200 nM. `COc1cccc(NC2CCN(c3ccc(-c4ccnc5[nH]ccc45)c(OC)n3)C2=O)c1` (racemic) [Example 128, 1-(6-methoxy-5-(1H-pyrrolo[2,3-b]pyridin-4-yl)pyridin-2-yl)-3-((3-methoxyphenyl)amino) pyrrolidin-2-one] gave an IC50 of 10 to 100 nM. With `COc1nc(N2CCC(Nc3cccc(OC(F)F)c3)C2=O)ccc1-c1cn[nH]c1` (single isomer, unassigned) [Example 220, 3-((3-(difluoromethoxy)phenyl)amino)-1-(6-methoxy-5-(1H-pyrazol-4-yl)pyridin-2-yl)pyrrolidin-2-one] the IC50 was < 10 nM. For `COc1cccc(N[C@H]2C(=O)N(c3ccc(-c4cn[nH]c4)cc3)C[C@@H]2CO)c1` [Example 133, (3R,4S)-1-(4-(1H-Pyrazol-4-yl)phenyl)-4-(hydroxymethyl)-3-((3-methoxyphenyl)amino) pyrrolidin-2-one], the IC50 was < 10 nM. With `COc1cc(F)cc(NC2CCN(c3ncc(-c4cn[nH]c4)cc3F)C2=O)c1` (single isomer, unassigned) [Example 359, 1-(3-fluoro-5-(1H-pyrazol-4-yl)pyridin-2-yl)-3-((3-fluoro-5-methoxyphenyl)amino) pyrrolidin-2-one] the IC50 was 100 to 2200 nM. `COc1cc(NC2CCN(c3ccc(-c4cn[nH]c4)c(C#N)c3)C2=O)ccc1F` (single isomer, unassigned) [Example 379, 5-(3-((4-fluoro-3-methoxyphenyl)amino)-2-oxopyrrolidin-1-yl)-2-(1H-pyrazol-4-yl)benzonitrile] gave an IC50 of 100 to 2200 nM. In the case of `COc1c(F)cccc1NC1CCN(c2ccc(-c3cn[nH]c3)cc2)C1=O` (single isomer, unassigned) [Example 15, 1-(4-(1H-pyrazol-4-yl)phenyl)-3-((3-fluoro-2-methoxyphenyl)amino)pyrrolidin-2-one], the IC50 is reported as < 10 nM. Work on `O=C1C(Nc2ccc3c(c2)OC(F)(F)O3)CCN1c1ccc(-c2cn[nH]c2)cc1` (single isomer, unassigned) [Example 53, 1-(4-(1H-pyrazol-4-yl)phenyl)-3-((2,2-difluorobenzo[d][1,3]dioxol-5-yl)amino)pyrrolidin-2-one] yielded an IC50 of 100 to 2200 nM.

— patent publication US10112929B2, “Lactams as inhibitors of rock” (BRISTOL-MYERS SQUIBB COMPANY, priority 2015, dated 2018)
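Note: rho kinase enzyme reaction halted with EDTA, phospho- and non-phospho peptide separated for read-out, kinase activity inhibition derived across a dose-response series, DMSO under 2%.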
